In ChEMBL document CHEMBL3886143, “(Hetero)aryl cyclopropylamine compounds as LSD1 inhibitors” (2016) one finds Ki data, which are given here for one molecule.

This assay concerns the target T1, Amine oxidase [flavin-containing] A (Homo sapiens, UniProt P21397).
T1 sequence (P21397 whole entry): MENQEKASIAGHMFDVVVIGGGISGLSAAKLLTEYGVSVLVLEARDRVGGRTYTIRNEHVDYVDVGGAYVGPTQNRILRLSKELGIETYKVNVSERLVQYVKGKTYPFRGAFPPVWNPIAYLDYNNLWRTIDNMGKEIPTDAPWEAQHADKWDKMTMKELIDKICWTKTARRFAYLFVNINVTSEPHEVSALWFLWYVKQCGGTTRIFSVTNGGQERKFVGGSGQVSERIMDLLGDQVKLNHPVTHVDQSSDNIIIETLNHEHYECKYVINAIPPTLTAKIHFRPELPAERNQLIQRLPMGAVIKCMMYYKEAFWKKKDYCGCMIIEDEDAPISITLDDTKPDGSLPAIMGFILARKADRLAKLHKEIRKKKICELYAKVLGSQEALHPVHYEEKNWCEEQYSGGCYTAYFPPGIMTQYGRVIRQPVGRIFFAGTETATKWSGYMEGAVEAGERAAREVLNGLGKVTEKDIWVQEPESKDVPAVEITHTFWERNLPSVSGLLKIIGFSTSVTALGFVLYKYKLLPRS
Kind of assay: Fluorescence-Based (Inhibitor)-Screening Assay: In order to monitor MAO enzymatic activities and/or their inhibition rate by inhibitor(s) of interest, a fluorescence-based (inhibitor)-screening assay was set up. 3-(2-Aminophenyl)-3-oxopropanamine (kynuramine dihydrobromide, Sigma Aldrich), a non fluorescent compound was chosen as a substrate. Kynuramine is a non-specific substrate for both MAO-A and MAO-B activities. While undergoing oxidative deamination by MAO activities, kynuramine is converted into 4-hydroxyquinoline (4-HQ), a resulting fluorescent product.The monoamine oxidase activity was estimated by measuring the conversion of kynuramine into 4-hydroxyquinoline. Assays were conducted in 96-well black plates with clear bottom (Corning) in a final volume of 100 uL. The assay buffer was 100 mM HEPES, pH 7.5. […] Clorgyline and Deprenyl (Sigma Aldrich) was used as a control for specific inhibition of MAO-A and MAO-B respectively. After leaving the enzyme(s) interacting with the inhibitor, KM of kynuramine was added to each reaction for MAO-B and MAO-A assay respectively, and the reaction was left for 1 hour at 37° C. in the dark. The oxidative deamination of the substrate was stopped by adding 50 uL of NaOH 2N. […] The IC50 values of each inhibitor were calculated with GraphPad Prism Software.

The term Ki denotes a measure of affinity in units of concentration, obtained from inhibition or displacement. As to `N[C@H]1CC[C@H](N[C@@H]2C[C@H]2c2ccccc2)CC1`, the Ki is over 40 µM.
